“And” between values parts separate entries of the source, which are not always exact repeats. Identical values can stand only once.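 These data come from cells grown in 96-well plates and exposed to compound for 48 hours at five concentrations. GI50: concentration for 50% inhibition of growth.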 The source made the active and inactive calls. Rule as the data show it: active = GI50 up to about 1.1 µM and inactive = higher.
Assays:
Test in all cases: growth of human tumour cells (NCI), 48 h
786-0 = tested on: 786-0
A498 = tested on: A498
A549 = tested on: A549
ACHN = tested on: ACHN
BT-549 = tested on: BT-549
CAKI-1 = tested on: CAKI-1
DU-145 = tested on: DU-145
EKVX = tested on: EKVX
HCC 2998 = tested on: HCC 2998
HCT-116 = tested on: HCT-116
HCT-15 = tested on: HCT-15
HL-60 = tested on: HL-60
HT-29 = tested on: HT-29
Hs-578T = tested on: Hs-578T
K562 = tested on: K562
KM12 = tested on: KM12
LOX IMVI = tested on: LOX IMVI
MCF7 = tested on: MCF7
MDA-MB-435 = tested on: MDA-MB-435
MDA-N = tested on: MDA-N
Malme-3M = tested on: Malme-3M
NCI-H23 = tested on: NCI-H23
NCI-H522 = tested on: NCI-H522
NCI/ADR-RES = tested on: NCI/ADR-RES
OVCAR-3 = tested on: OVCAR-3
OVCAR-4 = tested on: OVCAR-4
OVCAR-5 = tested on: OVCAR-5
PC-3 = tested on: PC-3
RXF 393 = tested on: RXF 393
SF-295 = tested on: SF-295
SK-MEL-5 = tested on: SK-MEL-5
SN12C = tested on: SN12C
SNB-19 = tested on: SNB-19
SW-620 = tested on: SW-620
U-251 = tested on: U-251
UACC-257 = tested on: UACC-257
UACC-62 = tested on: UACC-62
UO-31 = tested on: UO-31
CCRF-CEM = tested on: CCRF-CEM
COLO 205 = tested on: COLO 205
HOP-62 = tested on: HOP-62
IGROV-1 = tested on: IGROV-1
M14 = tested on: M14
MDA-MB-231 = tested on: MDA-MB-231
MOLT-4 = tested on: MOLT-4
NCI-H460 = tested on: NCI-H460
OVCAR-8 = tested on: OVCAR-8
RPMI-8226 = tested on: RPMI-8226
SF-268 = tested on: SF-268
SF-539 = tested on: SF-539
SK-MEL-28 = tested on: SK-MEL-28
SK-MEL-2 = tested on: SK-MEL-2
SK-OV-3 = tested on: SK-OV-3
SNB-75 = tested on: SNB-75
SR = tested on: SR
T47D = tested on: T47D
TK-10 = tested on: TK-10
HOP-92 = tested on: HOP-92
NCI-H226 = tested on: NCI-H226

For `COc1ccc(-c2c(C(C)=O)c(-c3ccccc3)n(C3OC(COC(C)=O)C(OC(C)=O)C(OC(C)=O)C3OC(C)=O)c(=S)c2C#N)cc1O` (stereo not given), the GI50 (786-0) was 36.5 µM (inactive) and 36.9 µM (inactive), the GI50 (A498) was > 100 µM (inactive) and the GI50 (A549) was 68.5 µM (inactive) and 44.9 µM (inactive). The GI50 (ACHN) was 40.8 µM (inactive) and 32.9 µM (inactive), the GI50 (BT-549) was 33.7 µM (inactive) and the GI50 (CAKI-1) was 62.8 µM (inactive) and 49.7 µM (inactive). For the same molecule, the GI50 (DU-145) was 37.8 µM (inactive) and 26.9 µM (inactive), the GI50 (EKVX) was 25.9 µM (inactive) and 34.6 µM (inactive) and the GI50 (HCC 2998) was 24.1 µM (inactive) and 18.2 µM (inactive). The GI50 (HCT-116) was 21.8 µM (inactive) and 36.2 µM (inactive), the GI50 (HCT-15) was 42.3 µM and 28 µM and the GI50 (HL-60) was 7.1 µM (inactive). For the same molecule, the GI50 (HT-29) was 36.9 µM (inactive), the GI50 (Hs-578T) was 47.6 µM (inactive) and 70.5 µM (inactive) and the GI50 (K562) was 47.9 µM (inactive) and 49.4 µM (inactive). The GI50 (KM12) was 33.7 µM (inactive) and 19.1 µM (inactive), the GI50 (LOX IMVI) was 34.6 µM (inactive) and 23.2 µM (inactive) and the GI50 (MCF7) was 28.6 µM (inactive) and 36.1 µM (inactive). For the same molecule, the GI50 (MDA-MB-435) was 39.1 µM (inactive) and 32 µM (inactive), the GI50 (MDA-N) was 27.5 µM (inactive) and 33.5 µM (inactive) and the GI50 (Malme-3M) was 18.5 µM (inactive) and 16.4 µM (inactive). For the same molecule, the GI50 (NCI-H23) was 35.4 µM (inactive) and 26 µM (inactive), the GI50 (NCI-H522) was 17.6 µM (inactive) and 10.1 µM (inactive) and the GI50 (NCI/ADR-RES) was 38.3 µM (inactive). The GI50 (OVCAR-3) was 29.4 µM (inactive) and 16.8 µM (inactive), the GI50 (OVCAR-4) was 31.8 µM (inactive) and 24.7 µM (inactive) and the GI50 (OVCAR-5) was > 100 µM (inactive) and 66.7 µM (inactive). For the same molecule, the GI50 (PC-3) was 26.4 µM (inactive) and 41.4 µM (inactive), the GI50 (RXF 393) was 40.6 µM (inactive) and 42.1 µM (inactive) and the GI50 (SF-295) was 64.4 µM (inactive) and 36.4 µM (inactive). The GI50 (SK-MEL-5) was 33.4 µM (inactive) and 30.1 µM (inactive), the GI50 (SN12C) was > 100 µM (inactive) and 52.1 µM (inactive) and the GI50 (SNB-19) was 71.4 µM (inactive). For the same molecule, the GI50 (SW-620) was 93.8 µM (inactive) and 91.6 µM (inactive), the GI50 (U-251) was 91.8 µM (inactive) and 69.5 µM (inactive) and the GI50 (UACC-257) was 55.8 µM (inactive) and 34.9 µM (inactive). For the same molecule, the GI50 (UACC-62) was 38.7 µM (inactive) and 19.9 µM (inactive) and the GI50 (UO-31) was 56.9 µM (inactive) and 36.4 µM (inactive).
With `C/C1=C\CC[C@@]2(C)O[C@@H]2C[C@@H]2[C@H](C/C(C)=C/CC1)OC(=O)C21CC1` the GI50 (786-0) was 74.5 µM (inactive), the GI50 (A498) was > 100 µM (inactive) and the GI50 (A549) was > 100 µM (inactive). The GI50 (ACHN) was 50.6 µM (inactive), the GI50 (BT-549) was 44.9 µM (inactive) and the GI50 (CAKI-1) was > 100 µM (inactive). The GI50 (CCRF-CEM) was 20.6 µM (inactive), the GI50 (COLO 205) was > 100 µM (inactive) and the GI50 (DU-145) was 59.7 µM (inactive). The GI50 (EKVX) was > 100 µM (inactive), the GI50 (HCC 2998) was > 100 µM (inactive) and the GI50 (HCT-116) was 35 µM (inactive). For the same molecule, the GI50 (HCT-15) was 27.7 µM, the GI50 (HL-60) was 24.2 µM (inactive) and the GI50 (HOP-62) was > 100 µM (inactive). For the same molecule, the GI50 (HT-29) was > 100 µM (inactive), the GI50 (IGROV-1) was 23.3 µM (inactive) and the GI50 (K562) was 21 µM (inactive). The GI50 (KM12) was > 100 µM (inactive), the GI50 (M14) was > 100 µM (inactive) and the GI50 (MCF7) was 53.5 µM (inactive). The GI50 (MDA-MB-231) was > 100 µM (inactive), the GI50 (MDA-MB-435) was 41.5 µM (inactive) and the GI50 (MDA-N) was 91.4 µM (inactive). The GI50 (MOLT-4) was 21.7 µM (inactive), the GI50 (Malme-3M) was > 100 µM (inactive) and the GI50 (NCI-H460) was 56.8 µM (inactive). The GI50 (NCI/ADR-RES) was > 100 µM (inactive), the GI50 (OVCAR-3) was > 100 µM (inactive) and the GI50 (OVCAR-5) was > 100 µM (inactive). The GI50 (OVCAR-8) was > 100 µM (inactive), the GI50 (PC-3) was > 100 µM (inactive) and the GI50 (RPMI-8226) was 12.1 µM (inactive). The GI50 (RXF 393) was > 100 µM (inactive), the GI50 (SF-268) was > 100 µM (inactive) and the GI50 (SF-295) was > 100 µM (inactive). The GI50 (SF-539) was > 100 µM (inactive), the GI50 (SK-MEL-28) was > 100 µM (inactive) and the GI50 (SK-MEL-2) was > 100 µM (inactive). The GI50 (SK-MEL-5) was 93.5 µM (inactive), the GI50 (SK-OV-3) was > 100 µM (inactive) and the GI50 (SN12C) was 60.3 µM (inactive). For the same molecule, the GI50 (SNB-19) was > 100 µM (inactive), the GI50 (SNB-75) was > 100 µM (inactive) and the GI50 (SR) was 12.7 µM (inactive). For the same molecule, the GI50 (SW-620) was 60.7 µM (inactive), the GI50 (T47D) was > 100 µM (inactive) and the GI50 (TK-10) was > 100 µM (inactive). The GI50 (U-251) was 28.8 µM (inactive), the GI50 (UACC-257) was > 100 µM (inactive) and the GI50 (UACC-62) was 90.8 µM (inactive). For the same molecule, the GI50 (UO-31) was 92.3 µM (inactive).
In the case of `COc1ccc(NC(C)=O)cc1N1C(=O)/C(=C\c2ccccc2)SC1c1cc(OC)c(OC)c(OC)c1` (stereo not given), the GI50 (786-0) is reported as 19.2 µM (inactive), the GI50 (A498) is reported as 60 µM (inactive) and the GI50 (A549) is reported as 30.1 µM (inactive). The GI50 (ACHN) was 39.2 µM (inactive), the GI50 (BT-549) was 47.4 µM (inactive) and the GI50 (CAKI-1) was 34.7 µM (inactive). The GI50 (CCRF-CEM) was 21.2 µM (inactive), the GI50 (COLO 205) was 26.6 µM (inactive) and the GI50 (DU-145) was 20.4 µM (inactive). The GI50 (EKVX) was 27.2 µM (inactive), the GI50 (HCC 2998) was 16.3 µM (inactive) and the GI50 (HCT-116) was 14.4 µM (inactive). The GI50 (HCT-15) was 21.7 µM, the GI50 (HL-60) was 26.8 µM (inactive) and the GI50 (HOP-62) was 39.2 µM (inactive). The GI50 (HOP-92) was 14.6 µM (inactive), the GI50 (HT-29) was 32.4 µM (inactive) and the GI50 (IGROV-1) was 25.9 µM (inactive). For the same molecule, the GI50 (K562) was 33.7 µM (inactive), the GI50 (KM12) was 16.3 µM (inactive) and the GI50 (LOX IMVI) was 14.9 µM (inactive). The GI50 (M14) was 35.6 µM (inactive), the GI50 (MCF7) was 28.5 µM (inactive) and the GI50 (MDA-MB-231) was 52.7 µM (inactive). The GI50 (MDA-MB-435) was 24.9 µM (inactive), the GI50 (MDA-N) was 25.8 µM (inactive) and the GI50 (MOLT-4) was 25.6 µM (inactive). The GI50 (Malme-3M) was 24.3 µM (inactive), the GI50 (NCI-H226) was 24 µM (inactive) and the GI50 (NCI-H23) was 36.5 µM (inactive). The GI50 (NCI-H460) was 15.5 µM (inactive), the GI50 (NCI-H522) was 13.8 µM (inactive) and the GI50 (NCI/ADR-RES) was 17.4 µM (inactive). The GI50 (OVCAR-3) was 29.4 µM (inactive), the GI50 (OVCAR-8) was 23.1 µM (inactive) and the GI50 (PC-3) was 29 µM (inactive). For the same molecule, the GI50 (RPMI-8226) was 34 µM (inactive), the GI50 (RXF 393) was 27 µM (inactive) and the GI50 (SF-268) was 17.7 µM (inactive). For the same molecule, the GI50 (SF-295) was 42.1 µM (inactive), the GI50 (SF-539) was 22.6 µM (inactive) and the GI50 (SK-MEL-28) was 80.7 µM (inactive). The GI50 (SK-MEL-2) was 31.8 µM (inactive), the GI50 (SK-MEL-5) was 12 µM (inactive) and the GI50 (SK-OV-3) was 41 µM (inactive). For the same molecule, the GI50 (SN12C) was 80.5 µM (inactive), the GI50 (SNB-19) was 34 µM (inactive) and the GI50 (SR) was 37.8 µM (inactive). For the same molecule, the GI50 (SW-620) was 40.4 µM (inactive), the GI50 (T47D) was 40.1 µM (inactive) and the GI50 (TK-10) was > 100 µM (inactive). The GI50 (U-251) was 32.5 µM (inactive), the GI50 (UACC-257) was > 100 µM (inactive) and the GI50 (UACC-62) was 30.4 µM (inactive). The GI50 (UO-31) was 33.7 µM (inactive).

— ChEMBL document CHEMBL1201862, “PubChem BioAssay data set” (2004)
